ChEMBL document CHEMBL1142926, “A new modification of anti-tubercular active molecules” (Bioorg Med Chem, 2007)
In brackets after ≈: the same amount, converted by molar mass.

Columns and labels:
[1] = test system: Mycobacterium tuberculosis; assay: Antimycobacterial activity against Mycobacterium tuberculosis H37Rv; type: functional, organism-based
[2] = test system: Mycobacterium tuberculosis; assay: Antimycobacterial activity against Mycobacterium tuberculosis H37Rv at 6.25 ug/mL; type: functional
[3] = test system: Mycobacterium tuberculosis; assay: Antimycobacterial activity against Mycobacterium tuberculosis 331/88 after 14 days; type: functional; settings: 336 h
Mycobacterium avium [4] = assay: Antimycobacterial activity against Mycobacterium avium 330/88 after 14 days; type: functional; settings: 336 h
Mycobacterium kansasii [5] = assay: Antimycobacterial activity against Mycobacterium kansasii 235/80 after 14 days; type: functional; settings: 336 h
Mycobacterium kansasii [6] = assay: Antimycobacterial activity against Mycobacterium kansasii 6509/96 after 14 days; type: functional; settings: 336 h
[7] = test system: Mycobacterium tuberculosis; assay: Antimycobacterial activity against Mycobacterium tuberculosis 331/88 after 21 days; type: functional; settings: 504 h
Mycobacterium avium [8] = assay: Antimycobacterial activity against Mycobacterium avium 330/88 after 21 days; type: functional; settings: 504 h
Mycobacterium kansasii [9] = assay: Antimycobacterial activity against Mycobacterium kansasii 235/80 after 7 days; type: functional; settings: 168 h
Mycobacterium kansasii [10] = assay: Antimycobacterial activity against Mycobacterium kansasii 235/80 after 21 days; type: functional; settings: 504 h
Mycobacterium kansasii [11] = assay: Antimycobacterial activity against Mycobacterium kansasii 6509/96 after 7 days; type: functional; settings: 168 h
Mycobacterium kansasii [12] = assay: Antimycobacterial activity against Mycobacterium kansasii 6509/96 after 21 days; type: functional; settings: 504 h
[13] = Lipophilicity, log K of the compound; type: physicochemical; settings: octanol/water
[14] = Stability after 7 days; type: physicochemical; settings: read-out: Stability
[15] = Stability after 14 days; type: physicochemical; settings: read-out: Stability
[16] = Stability after 21 days; type: physicochemical; settings: read-out: Stability
[17] = Stability within 7 days; type: physicochemical; settings: 168 h

SMILES	MIC [1] [µg/mL]	inhibition at 6.25 µg/mL [2] [%]	MIC [3] [µM]	MIC (Mycobacterium avium [4]) [µM]	MIC (Mycobacterium kansasii [5]) [µM]	MIC (Mycobacterium kansasii [6]) [µM]	MIC [7] [µM]	MIC (Mycobacterium avium [8]) [µM]	MIC (Mycobacterium kansasii [9]) [µM]	MIC (Mycobacterium kansasii [10]) [µM]	MIC (Mycobacterium kansasii [11]) [µM]	MIC (Mycobacterium kansasii [12]) [µM]	log K [13]	IC50 [1] [µg/mL]	remaining at 168 h [14] [%]	remaining at 336 h [15] [%]	remaining at 504 h [16] [%]	Activity [17]
CCC(CO)N1CCN(C(CC)CO)C1OS(=O)(=O)c1ccc(C)cc1 (centres undefined)	> 6.25	0	250 (≈ 96.6 µg/mL)	500 (≈ 193 µg/mL)	1000 (≈ 387 µg/mL)	500 (≈ 193 µg/mL)	500 (≈ 193 µg/mL)	1000 (≈ 387 µg/mL)	500 (≈ 193 µg/mL)	1000 (≈ 387 µg/mL)	250 (≈ 96.6 µg/mL)	1000 (≈ 387 µg/mL)	0.243					
CN(C)/C=N/C(=O)c1cnccn1	> 6.25	1											0.1718					
O=C(N/N=C/N1CCOCC1)c1ccncc1	> 6.25	74											0.2653					
O=C(N/N=C/NCc1ccccn1)c1ccncc1	6.25 (≈ 24.5 µM)	92	16 (≈ 4.08 µg/mL)	1000 (≈ 255 µg/mL)	1000 (≈ 255 µg/mL)	125 (≈ 31.9 µg/mL)	32 (≈ 8.17 µg/mL)	> 1000	1000 (≈ 255 µg/mL)	1000 (≈ 255 µg/mL)	62.5 (≈ 16 µg/mL)	125 (≈ 31.9 µg/mL)	0.3343	> 10				
O=C(N/N=C/NCc1ccccc1)c1ccncc1	> 6.25	93	32 (≈ 8.14 µg/mL)	1000 (≈ 254 µg/mL)	1000 (≈ 254 µg/mL)	250 (≈ 63.6 µg/mL)	65.5 (≈ 16.7 µg/mL)	> 1000	500 (≈ 127 µg/mL)	1000 (≈ 254 µg/mL)	125 (≈ 31.8 µg/mL)	250 (≈ 63.6 µg/mL)	0.5426	> 10				
O=C(N/N=C\N1CCN(c2cc3c(cc2F)c(=O)c(C(=O)O)cn3C2CC2)CC1)c1ccncc1	3.13 (≈ 6.54 µM)	99	2 (≈ 0.957 µg/mL)	125 (≈ 59.8 µg/mL)	4 (≈ 1.91 µg/mL)	4 (≈ 1.91 µg/mL)	4 (≈ 1.91 µg/mL)	250 (≈ 120 µg/mL)	2 (≈ 0.957 µg/mL)	8 (≈ 3.83 µg/mL)	2 (≈ 0.957 µg/mL)	8 (≈ 3.83 µg/mL)	0.9159		30	10	3	
O=C(N/N=C/NNC(=O)c1ccncc1)c1ccncc1	0.39 (≈ 1.37 µM)	96											0.3027	> 62.5	19	4	1	
O=C(NN/C=N/C(=O)c1cnccn1)c1ccncc1	0.1 (≈ 0.37 µM)	94	4 (≈ 1.08 µg/mL)	125 (≈ 33.8 µg/mL)	1000 (≈ 270 µg/mL)	8 (≈ 2.16 µg/mL)	8 (≈ 2.16 µg/mL)	125 (≈ 33.8 µg/mL)	500 (≈ 135 µg/mL)	1000 (≈ 270 µg/mL)	8 (≈ 2.16 µg/mL)	16 (≈ 4.32 µg/mL)	0.3562	> 10				Not Active
CN(C)/C=N/NC(=O)c1ccncc1	> 6.25	1	16 (≈ 3.08 µg/mL)	1000 (≈ 192 µg/mL)	500 (≈ 96.1 µg/mL)	250 (≈ 48.1 µg/mL)	16 (≈ 3.08 µg/mL)	> 1000	250 (≈ 48.1 µg/mL)	1000 (≈ 192 µg/mL)	125 (≈ 24 µg/mL)	500 (≈ 96.1 µg/mL)	0.252					
O=C(N/N=C/Nc1ccc(C(=O)O)c(O)c1)c1ccncc1	0.39 (≈ 1.3 µM)	96	4 (≈ 1.2 µg/mL)	125 (≈ 37.5 µg/mL)	1000 (≈ 300 µg/mL)	250 (≈ 75.1 µg/mL)	8 (≈ 2.4 µg/mL)	125 (≈ 37.5 µg/mL)	500 (≈ 150 µg/mL)	1000 (≈ 300 µg/mL)	125 (≈ 37.5 µg/mL)	250 (≈ 75.1 µg/mL)	0.366	> 62.5				Not Active
O=C(/N=C/Nc1ccc(C(=O)O)c(O)c1)c1cnccn1	3.13 (≈ 10.9 µM)	98	8 (≈ 2.29 µg/mL)	32 (≈ 9.16 µg/mL)	32 (≈ 9.16 µg/mL)	16 (≈ 4.58 µg/mL)	16 (≈ 4.58 µg/mL)	62.5 (≈ 17.9 µg/mL)	16 (≈ 4.58 µg/mL)	32 (≈ 9.16 µg/mL)	8 (≈ 2.29 µg/mL)	32 (≈ 9.16 µg/mL)	0.3695	> 10	10	1	0.1	
O=C(/N=C/N1CCN(c2cc3c(cc2F)c(=O)c(C(=O)O)cn3C2CC2)CC1)c1cnccn1	0.78 (≈ 1.68 µM)	100	2 (≈ 0.929 µg/mL)	62.5 (≈ 29 µg/mL)	2 (≈ 0.929 µg/mL)	2 (≈ 0.929 µg/mL)	4 (≈ 1.86 µg/mL)	125 (≈ 58.1 µg/mL)	1 (≈ 0.464 µg/mL)	4 (≈ 1.86 µg/mL)	2 (≈ 0.929 µg/mL)	4 (≈ 1.86 µg/mL)	0.97	> 10				Not Active
O=C(O)c1cn(C2CC2)c2cc(N3CCNCC3)c(F)cc2c1=O [CIPROFLOXACIN]	2 (≈ 6.04 µM)	98	16 (≈ 5.3 µg/mL)											> 10				
NNC(=O)c1ccncc1 [ISONIAZID]	0.025 (≈ 0.182 µM)		1 (≈ 0.137 µg/mL)	> 250	> 250	4 (≈ 0.549 µg/mL)	1 (≈ 0.137 µg/mL)	> 250	> 250	> 250	2 (≈ 0.274 µg/mL)	4 (≈ 0.549 µg/mL)		> 100				
NC(=O)c1cnccn1 [PYRAZINAMIDE]	6 (≈ 48.7 µM)		8 (≈ 0.985 µg/mL)	> 128	> 128		8 (≈ 0.985 µg/mL)	> 128	> 128	> 128								
